Laboratory results published in patent US8716287B2, “Pharmaceutical compounds” (Sentinel Oncology Limited, priority 2010, dated 2014).
Entries after “also recorded” stand apart in the source; their conditions may differ. Where a name gives a salt, the structure may show the parent alone. Read-outs that look alike come from different tables or passages of the source.

Key:
[1] = test system: HT29 cells; assay: Sensitisation of HT29 cells to SN38 (Alamar blue cell growth); assay type: cell-based, human; conditions: HT29 cells
Procedure: Studies were carried out to test the sensitising effect of compounds of the invention on the ability of the DNA damaging compound 7-ethyl-10-hydroxycamptothecin (SN38), an active metabolite of the anti-cancer drug irinotecan, to inhibit cell growth in HT29 cells.
(§1) The following protocol was used:
(a) HT29 cells were seeded in 96-well plates at a concentration of 3000 cells per well and allowed to adhere overnight prior to addition of compound or vehicle control.
(b) SN38 was prepared from a 10 mM DMSO stock to give a final concentration range of 1 μM, 300 nM, 100 nM, 30 nM, 10 nM, 3 nM, 1 nM, and vehicle control.
(c) Test compounds were prepared from 10 mM DMSO stocks to typically give a final concentration range of 3 μM, 1 μM, 0.3 μM. 0.1 μM, 0.03 μM and vehicle control. The final DMSO content was 0.4%.
(d) Test compounds were incubated with the cells for 72 h at 37° C. 5% CO2 in a humidified atmosphere.
(e) Alamar blue 10% (v/v) was then added and incubated for a further 6 h, and fluorescent product detected using the BMG FLUOstar plate reader.
(f) Data were analysed using a 4-parameter logistic equation in GraphPad Prism.
Sensitisation is determined by the enhancement in IC50 of SN38 by the addition of the Chk-1 kinase inhibitor. In the protocol described above, the IC50 for SN-38 is determined the presence of varying doses of the Chk-1 inhibitor. The fold shift represents a decrease in IC50 for SN-38 at a dose of Chk-1 inhibitor that has no effect by itself.

[2] = test system: MV4-11 cells; assay: Inhibition of cell growth in MV4-11 cells (Alamar blue); assay type: cell-based; conditions: Homo sapiens, 72 h incubation
Procedure: (§2) Studies were carried out to test the effect of compounds on the inhibition of cell growth in MOLM-13 and MV4-11 cells.
as §1
(§3) (a) Cells were seeded in 96-well plates at cell densities of 2500/well (MOLM-13) and 10,000/well (MV4-11). Cells were then incubated overnight prior to addition of compound or vehicle control.
(§4) (b) Test compounds were prepared from 10 mM DMSO stocks to give a final concentration range of 10 μM, 3 μM, 1 μM, 0.3 μM, 0.1 μM, […], […] and vehicle control. The DMSO content was constant at 0.1%.
(§5) (c) Test compounds were incubated with the cells for 72 h at 37° C. 5% CO2 in a humidified atmosphere.
(§6) (d) Alamar blue 10% (v/v) was then added and incubated for a further 4 h, and fluorescent product detected using the BMG FLUOstar plate reader.
(§7) (e) Media only background values were subtracted and the data analysed using a 4-parameter logistic equation in GraphPad Prism.
(§8) From the results obtained by following the above protocol, the IC50 values against MOLM-13 and MV4-11 cells of the compounds of Examples 20, 21, 22, 25, 33, 35, 37, 38, 44, 48, 49, 50, 51, 53, 54 and 55 were determined.

[3] = test system: MOLM-13 cells; assay: Inhibition of cell growth in MOLM-13 cells (Alamar blue); assay type: cell-based; conditions: Homo sapiens, 72 h incubation
Procedure: as §2, §1, §3, §4, §5, §6, §7, §8

[4] = target: Chk-1 kinase (Homo sapiens (Human), UniProt O14757); assay: Chk-1 kinase inhibiting activity (33P-ATP filter assay, CHKtide substrate); assay type: biochemical
Procedure: The compounds of the invention were tested for activity against Chk-1 kinase using the materials and protocols set out below.
Base Reaction buffer: 20 mM Hepes (pH 7.5), 10 mM MgCl2, 1 mM EGTA, 0.02% Brij35, 0.02 mg/ml BSA, 0.1 mM Na3VO4, 2 mM DTT, 1% DMSO
*Required cofactors are added individually to each kinase reaction
(i) Prepare indicated substrate in freshly prepared Base Reaction Buffer
(ii) Deliver any required cofactors to the substrate solution above
(iii) Deliver indicated kinase into the substrate solution and gently mix
(iv) Deliver compounds in DMSO into the kinase reaction mixture
(v) Deliver ^33P-ATP (specific activity 0.01 μCi/μl final) into the reaction mixture to initiate the reaction.
(vi) Incubate kinase reaction for 120 minutes at room temperature
(vii) Reactions are spotted onto P81 ion exchange paper (Whatman #3698-915)
(viii) Wash filters extensively in 0.1% phosphoric acid.
(ix) Dry filters and measure counts in scintillation counter
Recombinant full length construct, N-terminal GST tagged, purified from insect cells.
No special measures were taken to activate this kinase.
Final concentration in assay=0.5 nM
Peptide sequence: [[…]]
Final concentration in assay=20 μM
No additional cofactors are added to the reaction mixture

[5] = Chk-1 kinase, Table 3, read-out: IC50
[6] = ranges given, read-out: IC50 values against Chk-1 kinase

Chk-1 kinase, sequence (O14757 whole entry): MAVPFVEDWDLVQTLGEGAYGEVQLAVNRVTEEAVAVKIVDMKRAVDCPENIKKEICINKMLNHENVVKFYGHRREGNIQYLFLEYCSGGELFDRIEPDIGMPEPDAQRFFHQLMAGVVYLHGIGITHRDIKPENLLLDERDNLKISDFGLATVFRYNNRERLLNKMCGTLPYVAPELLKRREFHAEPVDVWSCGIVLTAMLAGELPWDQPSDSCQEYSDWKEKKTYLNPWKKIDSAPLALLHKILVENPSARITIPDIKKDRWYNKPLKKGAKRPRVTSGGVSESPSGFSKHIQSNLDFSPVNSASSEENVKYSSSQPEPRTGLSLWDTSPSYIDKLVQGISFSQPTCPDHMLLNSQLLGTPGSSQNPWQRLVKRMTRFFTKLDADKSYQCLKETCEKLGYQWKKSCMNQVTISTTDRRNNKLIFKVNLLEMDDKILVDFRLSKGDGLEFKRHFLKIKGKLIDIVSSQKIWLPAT

IC50 [2] | IC50 [3] | IC50 [4, 5] | IC50 [4, 6] | SMILES | fold shift in the IC50 value of SN38 ([1]; test compound at 3 μM) | fold shift in the IC50 value of SN38 ([1]; test compound at 1 μM)
0.81 µM | 0.5 µM | 0.0028 µM | < 0.01 µM | COc1cc(CCNCc2ccc(F)cc2)ccc1NC(=O)Nc1cnc(C#N)cn1 [Example 20, 1-(5-Cyano-pyrazin-2-yl)-3-{4-[2-(4-fluoro-benzylamino)-ethyl]-2-methoxy-phenyl}-urea] | three; also recorded: greater than ten | 
1.71 µM | 1.79 µM | 0.018 µM | 0.01 to 0.1 µM | N#Cc1cnc(NC(=O)Nc2ccc(CCNCc3ccc(N4CCOCC4)cc3)c(Cl)c2)cn1 [Example 25, 1-{3-Chloro-4-[2-(4-morpholin-4-yl-benzylamino)-ethyl]-phenyl}-3-(5-cyano-pyrazin-2-yl)-urea] |  | 
3.9 µM | 1.3 µM | 0.0014 µM | < 0.01 µM | CN1CCN(c2ccc(CNCCc3ccc(NC(=O)Nc4cnc(C#N)cn4)cc3Cl)cc2)CC1 [Example 35, 1-(3-Chloro-4-{2-[4-(4-methyl-piperazin-1-yl)-benzylamino]-ethyl}-phenyl)-3-(5-cyano-pyrazin-2-yl)-urea] |  | two
1 µM | 0.57 µM | 0.0016 µM | < 0.01 µM | COc1cc(CCNCc2ccc(F)cc2)c(Cl)cc1NC(=O)Nc1cnc(C#N)cn1 [Example 37, 1-{5-Chloro-4-[2-(4-fluoro-benzylamino)-ethyl]-2-methoxy-phenyl}-3-(5-cyano-pyrazin-2-yl)-urea hydrochloride] | greater than ten | two
2.44 µM | 0.61 µM | 0.0091 µM | < 0.01 µM | CN1CCN(c2cccc(CNCCc3ccc(NC(=O)Nc4cnc(C#N)cn4)cc3Cl)c2)CC1 [Example 38, 1-(3-Chloro-4-{2-[3-(4-methyl-piperazin-1-yl)-benzylamino]-ethyl}-phenyl)-3-(5-cyano-pyrazin-2-yl)-urea] | three | 
0.12 µM | 0.06 µM | 0.00028 µM | < 0.01 µM | COc1ccc(CNCCc2cc(OC)c(NC(=O)Nc3cnc(C#N)cn3)cc2Cl)cc1 [Example 49, 1-{5-Chloro-2-methoxy-4-[2-(4-methoxy-benzylamino)-ethyl]-phenyl}-3-(5-cyano-pyrazin-2-yl)-urea hydrochloride] | greater than ten | two
0.31 µM | 0.07 µM | 0.00045 µM | < 0.01 µM | COc1cc(CCNCc2ccc(N3CCN(C)CC3)cc2)c(Cl)cc1NC(=O)Nc1cnc(C#N)cn1 [Example 50, 1-(5-Chloro-2-methoxy-4-{2-[4-(4-methyl-piperazin-1-yl)-benzylamino]-ethyl}-phenyl)-3-(5-cyano-pyrazin-2-yl)-urea hydrochloride] |  | two
0.86 µM | 0.24 µM | 0.0033 µM | < 0.01 µM | COc1cc(CCNCc2ccc(N3CCN(C)CC3)cc2)ccc1NC(=O)Nc1cnc(C#N)cn1 [Example 51, 1-(5-Cyano-pyrazin-2-yl)-3-(2-methoxy-4-{2-[4-(4-methyl-piperazin-1-yl)-benzylamino]-ethyl}-phenyl)-urea] |  | 

Further lines, the compound ahead of its results:

SMILES | IC50 [2] | IC50 [3] | IC50 [4, 5] | IC50 [4, 6] | fold shift in the IC50 value of SN38 ([1]; test compound at 3 μM) | fold shift in the IC50 value of SN38 ([1]; test compound at 1 μM)
COc1cc(OCCNCc2ccc(F)cc2)ccc1NC(=O)Nc1cnc(C#N)cn1 [Example 21, 1-(5-Cyano-pyrazin-2-yl)-3-{4-[2-(4-fluorobenzylamino)-ethoxy]-2-methoxy-phenyl}-urea] | 1.29 µM | 1.3 µM | 0.0041 µM | < 0.01 µM |  | 
COc1cc(CNCc2ccccc2)ccc1NC(=O)Nc1cnc(C#N)cn1 [Example 22, 1-[4-(Benzylamino-methyl)-2-methoxy-phenyl]-3-(5-cyano-pyrazin-2-yl)-urea] | > 3 µM | > 3 µM | 0.099 µM | 0.01 to 0.1 µM | three; also recorded: greater than ten | 
COc1cc(OCCNCc2ccc(F)cc2F)ccc1NC(=O)Nc1cnc(C#N)cn1 [Example 33, 1-(5-Cyano-pyrazin-2-yl)-3-{4-[2-(2,4-difluoro-benzylamino)-ethoxy]-2-methoxy-phenyl}-urea] | 1.29 µM | 1.3 µM | 0.003 µM | < 0.01 µM | three | 
COc1cc(CCN[C@@H](C)c2ccc(F)cc2)ccc1NC(=O)Nc1cnc(C#N)cn1 [Example 44, 1-(5-Cyano-pyrazin-2-yl)-3-(4-{2-[(S)-1-(4-fluoro-phenyl)-ethylamino]-ethyl}-2-methoxy-phenyl)-urea] | 0.96 µM | 0.85 µM | 0.0051 µM | < 0.01 µM |  | 
COc1cccc(CNCCc2cc(OC)c(NC(=O)Nc3cnc(C#N)cn3)cc2Cl)c1 [Example 48, 1-{5-Chloro-2-methoxy-4-[2-(3-methoxy-benzylamino)-ethyl]-phenyl}-3-(5-cyano-pyrazin-2-yl)-urea hydrochloride] | 0.19 µM | 0.1 µM | 0.00047 µM | < 0.01 µM | greater than ten | two
COc1ccc([C@H](C)NCCc2cc(OC)c(NC(=O)Nc3cnc(C#N)cn3)cc2Cl)cc1 [Example 53, 1-(5-Chloro-2-methoxy-4-{2-[(S)-1-(4-methoxy-phenyl)-ethylamino]-ethyl}-phenyl)-3-(5-cyano-pyrazin-2-yl)-urea hydrochloride] | 0.288 µM | 0.03 µM | 0.00056 µM | < 0.01 µM |  | 
COc1cc(CCNCc2ccc3c(c2)OCO3)c(Cl)cc1NC(=O)Nc1cnc(C#N)cn1 [Example 54, 1-(4-{2-[(Benzo[1,3]-dioxol-5-ylmethyl)-amino]-ethyl}-5-chloro-2-methoxy-phenyl)-3-(5-cyano-pyrazin-2-yl)-urea hydrochloride] | 0.052 µM | 0.014 µM |  | < 0.01 µM |  | 
COc1ccccc1CNCCc1cc(OC)c(NC(=O)Nc2cnc(C#N)cn2)cc1Cl [Example 55, 1-{5-Chloro-2-methoxy-4-[2-(2-methoxy-benzylamino)-ethyl]-phenyl}-3-(5-cyano-pyrazin-2-yl)-urea hydrochloride] | 0.254 µM | 0.034 µM | 0.00048 µM | < 0.01 µM |  | 
